Assay results from paper PMC8156816, “Antibacterial Activities of Homemade Matrices Miming Essential Oils Compared to Commercial Ones” (Antibiotics, 2021).
Converted amounts (≈) assume the structure as drawn. Read-outs that look alike come from different tables or passages of the source.

Tests used:
[1] = test system: Staphylococcus aureus LMG 21674 (FUSR); experiment: Direct antibacterial activity, broth microdilution MIC; assay type: cell-based; conditions: for MIC: Staphylococcus aureus
Experimental: (§1) Two types of antibacterial assays were employed as previously described. All the samples, essential oils, mixtures of essential oil types, and individual compounds were evaluated alone (direct activity) or in association with an antibiotic (indirect activity) at a sub-MIC concentration (non-active concentration). The tested strains were the Gram-positive Staphylococcus aureus LMG 15,975 (methicillin-resistant S. aureus, abbreviated as MRSA) and S. aureus LMG 21,674 (fusidic-acid-resistant S. aureus, abbreviated as FUSR). The chosen antibiotics were penicillin V and fusidic acid. The broth microdilution method in 96-well plates was used to determine the minimum inhibitory concentration (MIC). For the direct activity, samples were serially diluted to achieve a concentration ranging from 1 mg/mL to 2 μg/mL. For the indirect activity, the antibiotic was first serially diluted (from 64 to 7.103 μg/mL) and the samples were subsequently added to the wells at the defined sub-MIC concentration. These ranges were chosen because above them the sample is considered as non-active. For both assays, the inoculum was prepared from a suspension of 24-hour colonies to obtain a turbidity of 0.5 McFarland and added to the wells to achieve a final concentration of 5 × 10^5 CFU/mL. Plates were then incubated at 37 °C overnight and MTT (0.8 mg/mL) was used to determine the MIC by naked eye. A growth (Mueller–Hinton broth medium with inoculum) and a non-growth (only MHB) control were carried out. In addition, antibiotics were also always tested alone as positive controls.

[2] = test system: Staphylococcus aureus LMG 15975 (MRSA); experiment: as above; assay type: cell-based; conditions: read-out: Direct Activity MRSA MIC
Experimental: as §1

[3] = test system: Staphylococcus aureus LMG 21674 (FUSR); experiment: Indirect antibacterial activity in association with penicillin V; assay type: cell-based; conditions: sample at sub-MIC, versus penicillin V alone (16 μg/mL)
Excerpt: as §1, with “All the samples, essential oils, mixtures of essential oil types, and individual compounds were evaluated alone (direct activity) or in association with an antibiotic (indirect activity) at a sub-MIC concentration (non-active concentration).” left out
(§2) The indirect activity presented in this study made use of a different method to test synergistic effects between two compounds. The difference with the traditional checkerboard method was that compound A (antibiotic) was serially diluted and compound B (essential oil/pure metabolite or homemade mixture) was added at a fix sub-MIC concentration, determined under the cytotoxic activity threshold. […] An indirect activity is observed when the MIC of the association is lower than the MIC of the antibiotic alone.

[4] = test system: Staphylococcus aureus LMG 15975 (MRSA); experiment: as above; assay type: cell-based; conditions: sample at sub-MIC, versus penicillin V alone (4 μg/mL)
Excerpt: as §1, with “All the samples, essential oils, mixtures of essential oil types, and individual compounds were evaluated alone (direct activity) or in association with an antibiotic (indirect activity) at a sub-MIC concentration (non-active concentration).” left out
as §2

[5] = test system: human lung cells; conditions: cited from earlier work
[6] = Cytotoxic activity, colorimetric MTT assay on keratinocytes; assay type: cell-based; conditions: human, HaCaT keratinocyte cells, interpretation proposed by Döll-Boscardin et al.
Experimental: The effect of each essential oil on the global growth of the cell line was investigated through a colorimetric MTT assay as previously described. Briefly, human keratinocytes cells (HaCaT) were grown in RPMI supplemented with 10% fetal bovine serum and 0.5% penicillin-streptomycin and seeded at a density of 10 000 cells/mL in 96-well plates. […] The contact time of incubation was 72 h. Finally, after 3 to 5 hours of incubation with the MTT (0.5 mg/mL), the plates were centrifuged at 1200 rpm for 5 min, the supernatant was discarded, and the formazan crystals formed dissolved in DMSO. A spectrophotometer (680XR, BioRad, Hercules, CA, USA) was used to measure the absorbance (at 570 and 630 nm), which can be directly correlated to the number of viable cells (cell viability (% RC) = (absorbance of treated cells/absorbance of control) × 100).

[7] = test system: MRSA strains; conditions: same strain and other MRSA strains; cited from earlier work
[8] = test system: S. aureus ATCC 25923 (MSSA); design: method as in PMID 16619365; conditions: cited from earlier work
[9] = test system: green monkey kidney, mouse fibroblast, human retinal ganglion, and human colon fibroblast cell lines; conditions: cited from earlier work
[10] = test system: S. aureus MTCC 7405; design: method as in Dahham et al. (2015); conditions: ref Dahham et al. (2015); cited from earlier work
[11] = test system: MSSA (ATCC 29,213); design: method as in PMID 32629822; conditions: cited from earlier work
[12] = LMG21674, sample alone, broth microdilution, median, read-out: Direct Activity FUSR MIC
[13] = sample alone, broth microdilution, median

SMILES	decrease of the MIC of penicillin V on MRSA [4]	MIC [1, 12]	MIC [2, 13]	also measured
Cc1ccc(C(C)C)cc1O [Carvacrol]	4 fold	–	–	MIC ([1]; LMG21674, read-out: Direct Activity FUSR MIC): 62.5 µg/mL (≈ 416 µM); MIC [2]: 250 µg/mL (≈ 1660 µM); decrease of the MIC of penicillin V on FUSR S. aureus [3]: 4 fold; cytotoxicity [5]: low cytotoxicity
C=CC(C)(O)CCC=C(C)C (stereo not shown) [Linalool]	–	> 1000 µg/mL	> 1000 µg/mL	IC50 at 72 h [6]: < 31.3 µg/mL
CC1(C)S[C@@H]2[C@H](NC(=O)COc3ccccc3)C(=O)N2[C@H]1C(=O)O [PEN V, penicillin V]	–	16 µg/mL (≈ 45.7 µM)	4 µg/mL (≈ 11.4 µM)	–
Cc1ccc(C(C)C)c(O)c1 [Thymol]	4 fold	125 µg/mL (≈ 832 µM)	250 µg/mL (≈ 1660 µM)	MIC [7]: around 600 μg/mL; cytotoxicity [5]: low cytotoxicity
CC(=O)O[C@H]1C[C@@]2(C)[C@@H](C[C@@H](O)[C@H]3[C@@]4(C)CC[C@@H](O)[C@@H](C)[C@@H]4CC[C@@]32C)/C1=C(\CCC=C(C)C)C(=O)O [fusidic acid]	–	256 µg/mL (≈ 495 µM)	–	–
Cc1ccc(C(C)C)cc1 [p-cymene]	–	> 1000 µg/mL	> 1000 µg/mL	Direct Activity FUSR MIC [1, 13]: No direct activity
C=C1CC/C=C(\C)CC[C@@H]2[C@@H]1CC2(C)C [β-caryophyllene]	4 fold	31.3 µg/mL (≈ 153 µM)	> 1000 µg/mL	decrease of the MIC of penicillin V on FUSR S. aureus [3]: 267 fold; MIC [8]: 5.1 µg/mL (≈ 25 µM); cytotoxic effect [9]: low cytotoxic effect; MIC compared with kanamycin [10]: a better MIC on S. aureus MTCC 7405 than the kanamycin; MIC [11]: 313 µg/mL (≈ 1530 µM)
C=CC(=C)CCC=C(C)C [β-myrcene]	–	> 1000 µg/mL	> 1000 µg/mL	–
C=C1CCC2CC1C2(C)C (stereo not drawn) [β-pinene]	–	250 µg/mL (≈ 1840 µM)	> 1000 µg/mL	–
CC1=CCC(C(C)C)=CC1 [γ-terpinene]	–	> 1000 µg/mL	> 1000 µg/mL	Direct Activity FUSR MIC [1, 13]: No direct activity
